# Measured values reported in ChEMBL document CHEMBL6114952, “Synthesis and antitumor effects of novel betulinic acid derivatives bearing electrophilic moieties” (Bioorg Med Chem, 2025).
# Key:
# Type in all cases: functional, cell-based
# [1] = system: HeLa; assay: Antiproliferative activity against human HeLa cells assessed as inhibition of cell proliferation incubated for 48 hrs by MTT assay
# [2] = system: MCF7; assay: Antiproliferative activity against human MCF7 cells assessed as inhibition of cell proliferation incubated for 48 hrs by MTT assay; settings: MCF7, 48 h
# [3] = system: MDA-MB-231; assay: Antiproliferative activity against human MDA-MB-231 cells assessed as inhibition of cell proliferation incubated for 48 hrs by MTT assay; settings: MDA-MB-231, 48 h
IC50 [1] [µM],IC50 [2] [µM],IC50 [3] [µM],SMILES
16.9,17.1,–,C=C(C)[C@@H]1CC[C@]2(C(=O)O)CC[C@]3(C)[C@H](CC[C@@H]4[C@@]5(C)CC[C@@H](OC(=O)CCl)C(C)(C)[C@@H]5CC[C@]43C)[C@@H]12
8.69,7.24,8.94,C=C(C)[C@@H]1CC[C@]2(C(=O)O)CC[C@]3(C)[C@H](CC[C@@H]4[C@@]5(C)CC[C@H](OC(=O)NCCCCNC(=O)CCl)C(C)(C)[C@@H]5CC[C@]43C)[C@@H]12
> 100,> 100,> 100,C=C(C)[C@@H]1CC[C@]2(C(=O)OCc3ccccc3)CC[C@]3(C)[C@H](CC[C@@H]4[C@@]5(C)CC[C@H](OC(=O)N6CCN(C(=O)CCl)CC6)C(C)(C)[C@@H]5CC[C@]43C)[C@@H]12
15.3,16.2,17.6,C=C(C)[C@@H]1CC[C@]2(C(=O)O)CC[C@]3(C)[C@H](CC[C@@H]4[C@@]5(C)CC[C@H](OC(=O)CCl)C(C)(C)[C@@H]5CC[C@]43C)[C@@H]12
> 100,> 100,> 100,C=C(C)[C@@H]1CC[C@]2(C(=O)N3CCN(C(=O)CCl)CC3)CC[C@]3(C)[C@H](CC[C@@H]4[C@@]5(C)CC[C@H](OC(=O)Nc6ccccc6)C(C)(C)[C@@H]5CC[C@]43C)[C@@H]12
30,29.9,36.3,C=C(C)[C@@H]1CC[C@]2(C(=O)N3CCN(C(C)=O)CC3)CC[C@]3(C)[C@H](CC[C@@H]4[C@@]5(C)CCC(=O)C(C)(C)[C@@H]5CC[C@]43C)[C@@H]12
2.01,2.52,–,C=C(C)[C@@H]1CC[C@]2(C(=O)N3CCN(C(=O)CCl)CC3)CC[C@]3(C)[C@H](CC[C@@H]4[C@@]5(C)CCC(=O)C(C)(C)[C@@H]5CC[C@]43C)[C@@H]12
> 75,> 75,–,C=C(C)[C@@H]1CC[C@]2(C(=O)OCc3ccccc3)CC[C@]3(C)[C@H](CC[C@@H]4[C@@]5(C)CC[C@@H](OC(=O)CCl)C(C)(C)[C@@H]5CC[C@]43C)[C@@H]12
8.73,6.81,9.64,C=C(C)[C@@H]1CC[C@]2(C(=O)O)CC[C@]3(C)[C@H](CC[C@@H]4[C@@]5(C)CC[C@H](OC(=O)NCCNC(=O)CCl)C(C)(C)[C@@H]5CC[C@]43C)[C@@H]12
> 150,> 150,> 150,C=C(C)[C@@H]1CC[C@]2(C(=O)OCc3ccccc3)CC[C@]3(C)[C@H](CC[C@@H]4[C@@]5(C)CC[C@H](OC(=O)NC(=O)CCl)C(C)(C)[C@@H]5CC[C@]43C)[C@@H]12
33.5,35.3,30.9,C=CC(=O)O[C@H]1CC[C@]2(C)[C@H]3CC[C@@H]4[C@H]5[C@H](C(=C)C)CC[C@]5(C(=O)O)CC[C@@]4(C)[C@]3(C)CC[C@H]2C1(C)C
31.3,30.7,26.3,C=C(C)[C@@H]1CC[C@]2(C(=O)O)CC[C@]3(C)[C@H](CC[C@@H]4[C@@]5(C)CC[C@H](OC(=O)N6CCN(C(=O)C(F)(F)Cl)CC6)C(C)(C)[C@@H]5CC[C@]43C)[C@@H]12
21.4,20.7,25.6,C=C(C)[C@@H]1CC[C@]2(C(=O)N3CCN(C)CC3)CC[C@]3(C)[C@H](CC[C@@H]4[C@@]5(C)CC[C@H](OC(=O)N6CCN(C(=O)CCl)CC6)C(C)(C)[C@@H]5CC[C@]43C)[C@@H]12
66.2,51.5,35.7,C=C(C)[C@@H]1CC[C@]2(C(=O)O)CC[C@]3(C)[C@H](CC[C@@H]4[C@@]5(C)CC[C@H](OC(=O)C(Cl)Cl)C(C)(C)[C@@H]5CC[C@]43C)[C@@H]12
7.34,7.25,8.48,C=C(C)[C@@H]1CC[C@]2(C(=O)O)CC[C@]3(C)[C@H](CC[C@@H]4[C@@]5(C)CC[C@H](OC(=O)NCCCNC(=O)CCl)C(C)(C)[C@@H]5CC[C@]43C)[C@@H]12
> 75,> 75,> 75,C=C(C)[C@@H]1CC[C@]2(C(=O)OCc3ccccc3)CC[C@]3(C)[C@H](CC[C@@H]4[C@@]5(C)CC[C@H](OC(=O)CCl)C(C)(C)[C@@H]5CC[C@]43C)[C@@H]12
> 75,> 75,> 75,C=C(C)[C@@H]1CC[C@]2(C(=O)OC)CC[C@]3(C)[C@H](CC[C@@H]4[C@@]5(C)CC[C@H](OC(=O)CCl)C(C)(C)[C@@H]5CC[C@]43C)[C@@H]12
17.2,16.7,18,C=CCNC(=O)[C@]12CC[C@@H](C(=C)C)[C@@H]1[C@H]1CC[C@@H]3[C@@]4(C)CC[C@H](OC(=O)N5CCN(C(=O)CCl)CC5)C(C)(C)[C@@H]4CC[C@@]3(C)[C@]1(C)CC2
18.7,17.5,18.6,C=C(C)[C@@H]1CC[C@]2(C(=O)O)CC[C@]3(C)[C@H](CC[C@@H]4[C@@]5(C)CC[C@H](OC(=O)CBr)C(C)(C)[C@@H]5CC[C@]43C)[C@@H]12

SMILES,IC50 [1] [µM],IC50 [2] [µM],IC50 [3] [µM]
C=C(C)[C@@H]1CC[C@]2(C(=O)N3CCNCC3)CC[C@]3(C)[C@H](CC[C@@H]4[C@@]5(C)CCC(=O)C(C)(C)[C@@H]5CC[C@]43C)[C@@H]12,3.04,3.94,3
C=C(C)[C@@H]1CC[C@]2(C(=O)O)CC[C@]3(C)[C@H](CC[C@@H]4[C@@]5(C)CC[C@H](O)C(C)(C)[C@@H]5CC[C@]43C)[C@@H]12 [BETULINIC ACID],51.3,40.8,66
C=C(C)[C@@H]1CC[C@]2(C(=O)O)CC[C@]3(C)[C@H](CC[C@@H]4[C@@]5(C)CC[C@H](OC(C)=O)C(C)(C)[C@@H]5CC[C@]43C)[C@@H]12,32.1,43.6,35
C=C(C)[C@@H]1CC[C@]2(C(=O)O)CC[C@]3(C)[C@H](CC[C@@H]4[C@@]5(C)CC[C@H](OC(=O)CC)C(C)(C)[C@@H]5CC[C@]43C)[C@@H]12,39.4,45.1,30.9
